Measurements taken from patent US20110217324A1, “INHIBITORS OF ANTIGEN PRESENTATION BY MHC CLASS II MOLECULES AND METHODS OF USE THEREOF” (priority 2007, published 2011).
Numbered stars: 1 amine (or outer) side, 2 acyl side, 3 side chain; on linkers, the order of the positions; unused ones are H or OH. Square brackets hold non-standard residues; d marks the D form. Peptide text beside a SMILES is read from it. * marks the point of attachment. Phe(3,4-Cl2) = N[C@@H](Cc1ccc(Cl)c(Cl)c1)C(=O)O; X2 = O=C([C@H](Cc1cccc2[nH]cnc12)N[*:1])[*:2]; X7 = O=C([C@H](Cc1cccc2[nH]ncc12)N[*:1])[*:2]; X8 = Nc1nc(C[C@H](N[*:1])C(=O)[*:2])c[nH]1; X5 = O=C(C(Cc1cccc2[nH]ccc12)N[*:1])[*:2]; Oic = O=C(O)[C@@H]1C[C@@H]2CCCC[C@@H]2N1; Phe(4-F) = N[C@@H](Cc1ccc(F)cc1)C(=O)O; Gly(cPent) = N[C@H](C(=O)O)C1CCCC1; Lys(Me2) = CN(C)CCCC[C@H](N)C(=O)O; Igl = N[C@H](C(=O)O)C1Cc2ccccc2C1; hCit = NC(=O)NCCCC[C@H](N)C(=O)O; Tic = O=C(O)[C@@H]1Cc2ccccc2CN1; Cit = NC(=O)NCCC[C@H](N)C(=O)O; Chg = N[C@H](C(=O)O)C1CCCCC1; NHPhenethyl = c1ccc(CCN*)cc1; Tle = CC(C)(C)[C@H](N)C(=O)O; X3 = c1cc2cc(CCN*)ccc2[nH]1; Pip = O=C(O)[C@@H]1CCCCN1; Morpholide = C1CN(*)CCO1; Nva = CCC[C@H](N)C(=O)O; Abu = CC[C@H](N)C(=O)O; βAla = NCCC(=O)O; Sar = CNCC(=O)O

Each compound was assayed against T1, MHC DR2 (DRB1*1501/DRA*0101) (Homo sapiens, UniProt P01903+P01911) (assay: HLA II Binding Assay (competition with biotinylated reference peptide)). Conditions: purified HLA-DR, biotinylated reference compound for DRB1*1501, 37° C. 24 h to 72 h; read-out: Inhibition of peptide binding IC50 (against MHC DR2 (DRB1*1501/DRA*0101)).
T1 construct: endogenous in cells; host or cells: EBV homozygous (B lymphoblastoid) cell lines
Experimental: EBV homozygous cell lines are used as sources of human HLA class II molecules. […] The supernatant from lysed cells after centrifugation (100,000 g for 1 h) is applied to Sepharose 4B and protein A-Sepharose 4B columns and then to the specific antibody column. […] Fractions are immediately neutralized to pH 7 with 2 mM Tris-HCl (pH 6.8) and extensively dialyzed against 1 mM n-dodecyl β-D-maltoside, 150 mM NaCl, 10 mM phosphate (pH 7) buffer.
Samples (100 μl per well) are incubated in 96-wells polypropylene plates at 37° C. for 24 h to 72 h. After neutralization with 50 μl of 450 mM Tris HCl pH 7.5, 0.003% thimerosal, 0.3% BSA, 1 mM n-dodecyl β-D-maltoside buffer, samples are applied to 96-well maxisorp ELISA plates previously coated with 10 μg/ml L243 Mab and saturated with 100 mM Tris HCl pH=7.5, 0.3% BSA, and 0.003% thimerosal buffer. Samples are allowed to bind to the antibody-coated plates for 2 h at room temperature. Bound biotinylated compound is detected by incubating streptavidin-alkaline phosphatase conjugate, and after washings, by the addition of 4-methylumbelliferyl phosphate substrate. […] Maximal binding is determined by incubating the biotinylated peptide with the MHC class II molecule in the absence of competitor. Binding specificity is assessed by adding an excess of non-biotinylated peptide.

Row | Compound | IC50 [nM]
1 | CC(=O)N[C@H](C(=O)N[C@H](C(=O)N[C@@H](CCCNC(N)=O)C(=O)N1Cc2ccccc2C[C@H]1C(=O)N[C@@H](Cc1ccccc1)C(N)=O)C1CCCCC1)C(C)C [AcV(Chg)(Cit)(Tic)F] (Ac-V[Chg][Cit][Tic]F-NH2) | 1 to 10
2 | CC(=O)N[C@H](C(=O)N[C@H](C(=O)N[C@@H](CCCNC(=N)N)C(=O)N1Cc2ccccc2C[C@H]1C(=O)N[C@@H](Cc1c[nH]c2ccccc12)C(N)=O)C1CCCCC1)C(C)C [AcV(Chg)R(Tic)(Trp)] (Ac-V[Chg]R[Tic]W-NH2) | 1 to 10
3 | CC[C@H](N)C(=O)N[C@H](C(=O)N[C@H](C(=O)N[C@@H](CCCNC(N)=O)C(=O)N1Cc2ccccc2C[C@H]1C(=O)N[C@@H](Cc1ccccc1)C(N)=O)C1CCCCC1)C(C)C [(NH2-Abu)V(Chg)(Cit)(Tic)F] (H-[Abu]V[Chg][Cit][Tic]F-NH2) | 1 to 10
4 | CC(=O)N[C@H](C(=O)N[C@H](C(=O)N[C@@H](C)C(=O)N1Cc2ccccc2C[C@H]1C(=O)N[C@@H](Cc1ccccc1)C(N)=O)C1CCCCC1)C(C)C [AcV(Chg)A(Tic)F] (Ac-V[Chg]A[Tic]F-NH2) | 10 to 100
5 | CC(=O)N[C@H](C(=O)N[C@H](C(=O)N[C@@H](CCCNC(=N)N)C(=O)N1Cc2ccccc2C[C@H]1C(=O)N[C@@H](Cc1ccccc1)C(=O)N1CCOCC1)C1CCCCC1)C(C)C [AcV(Chg)R(Tic)F-CO(morpholine)] (Ac-V[Chg]R[Tic]F-Morpholide) | 10 to 100
6 | CC(=O)N[C@H](C(=O)N[C@H](C(=O)N[C@@H](CCCNC(=N)N)C(=O)N1Cc2ccccc2C[C@H]1C(=O)NCCc1ccc2[nH]ccc2c1)C1CCCCC1)C(C)C [AcV(Chg)R(Tic)(5-ethylaminoindole)] (Ac-V[Chg]R[Tic]-X3) | 100 to 1000
7 | CC(=O)N[C@H](C(=O)N[C@H](C(=O)N[C@@H](CCCNC(=N)N)C(=O)N1Cc2ccccc2C[C@H]1C(=O)N[C@@H](Cc1ccccc1)C(N)=O)C1Cc2ccccc2C1)C(C)C [AcV(Indgly)R(Tic)F] (Ac-V[Igl]R[Tic]F-NH2) | 10 to 100
8 | CC(=O)N[C@H](C(=O)N[C@H](C(=O)N[C@@H](CCCNC(=N)N)C(=O)N1Cc2ccccc2C[C@H]1C(=O)N[C@@H](Cc1ccccc1)C(N)=O)C1CCCCC1)[C@@H](C)O [Ac(Thr)(Chg)R(Tic)F] (Ac-T[Chg]R[Tic]F-NH2) | 10 to 100
9 | (NH2-Beta Ala)V(Chg)(pyrimidinyl)(Tic)F | 10 to 100
10 | CC(=O)N[C@H](C(=O)N[C@@H](CCCCN(C)C)C(=O)N1Cc2ccccc2C[C@H]1C(=O)N[C@@H](Cc1ccccc1)C(=O)N1CCCC[C@H]1C(N)=O)C1CCCC1 [Ac(Cpg)(diMeK)(Tic)F(homo Pro)] (Ac-[Gly(cPent)][Lys(Me2)][Tic]F[Pip]-NH2) | 10 to 100
11 | CC(=O)N[C@H](C(=O)N[C@H](C(=O)N[C@@H](Cc1c[nH]cn1)C(=O)N1Cc2ccccc2C[C@H]1C(=O)N[C@@H](Cc1ccccc1)C(N)=O)C1CCCCC1)C(C)C [AcV(Chg)H(Tic)F] (Ac-V[Chg]H[Tic]F-NH2) | 10 to 100
12 | CC(=O)N[C@H](C(=O)N[C@H](C(=O)N[C@@H](CCCNC(=N)N)C(=O)N1Cc2ccccc2C[C@H]1C(=O)N[C@@H](Cc1ccccc1)C(N)=O)C1CCCC1)C(C)C [AcV(Cpg)R(Tic)F] (Ac-V[Gly(cPent)]R[Tic]F-NH2) | 1 to 10
13 | CC(=O)N[C@H](C(=O)N[C@H](C(=O)N[C@@H](CCCNC(=N)N)C(=O)N1Cc2ccccc2C[C@H]1C(=O)NCCc1ccccc1)C1CCCCC1)C(C)C [AcV(Chg)R(Tic)(phenethylamide)] (Ac-V[Chg]R[Tic]-NHPhenethyl) | 100 to 1000
14 | CC(C)[C@H](NC(=O)CCN)C(=O)N[C@H](C(=O)N[C@@H](CCCNC(=N)N)C(=O)N1Cc2ccccc2C[C@H]1C(=O)N[C@@H](Cc1ccccc1)C(N)=O)C1CCCCC1 [(NH2-Beta Ala)V(Chg)R(Tic)F] (H-[βAla]V[Chg]R[Tic]F-NH2) | 1 to 10
15 | CC(=O)N[C@H](C(=O)N[C@H](C(=O)N[C@@H](CCCCNC(N)=O)C(=O)N1Cc2ccccc2C[C@H]1C(=O)N[C@@H](Cc1ccccc1)C(N)=O)C1CCCCC1)C(C)C [AcV(Chg)(homo Cit)(Tic)F] (Ac-V[Chg][hCit][Tic]F-NH2) | 1 to 10
16 | CCC[C@H](NC(C)=O)C(=O)N[C@H](C(=O)N[C@@H](CCCNC(=N)N)C(=O)N1Cc2ccccc2C[C@H]1C(=O)N[C@@H](Cc1ccccc1)C(N)=O)C1CCCCC1 [Ac(nor-V)(Chg)R(Tic)F] (Ac-[Nva][Chg]R[Tic]F-NH2) | 1 to 10

Row | Compound | IC50 [nM]
17 | CC(=O)N[C@H](C(=O)N[C@@H](CCCNC(=N)N)C(=O)N1Cc2ccccc2C[C@H]1C(=O)N[C@@H](Cc1c[nH]c2ccccc12)C(N)=O)C1CCCCC1 [Ac(Chg)R(Tic)(Trp)] (Ac-[Chg]R[Tic]W-NH2) | 10 to 100
18 | CC(=O)N[C@H](C(=O)N[C@H](C(=O)N[C@@H](CCCNC(=N)N)C(=O)N1Cc2ccccc2C[C@H]1C(=O)N[C@@H](Cc1ccccc1)C(N)=O)C1CCCCC1)C(C)(C)C [Ac(t-BuG)(Chg)R(Tic)F] (Ac-[Tle][Chg]R[Tic]F-NH2) | 1 to 10
19 | CC(=O)N[C@H](C(=O)N[C@@H](CCCNC(=N)N)C(=O)N1CCCC[C@H]1C(=O)N[C@@H](Cc1ccccc1)C(=O)N1CCCC[C@H]1C(N)=O)C1CCCCC1 [Ac(Chg)R(homo Pro)F(homo Pro)] (Ac-[Chg]R[Pip]F[Pip]-NH2) | 100 to 1000
20 | CC(=O)N[C@H](C(=O)N[C@H](C(=O)N[C@@H](CCCNC(=N)N)C(=O)N1[C@H](C(=O)N[C@@H](Cc2ccccc2)C(N)=O)C[C@@H]2CCCC[C@@H]21)C1CCCCC1)C(C)C [AcV(Chg)R(Oic)F] (Ac-V[Chg]R[Oic]F-NH2) | 100 to 1000
21 | CC(=O)N[C@H](C(=O)N[C@H](C(=O)N[C@@H](CCCNC(=N)N)C(=O)N1Cc2ccccc2C[C@H]1C(=O)N[C@@H](Cc1ccc(Cl)c(Cl)c1)C(N)=O)C1CCCCC1)C(C)C [AcV(Chg)R(Tic)(3,4-dichloro Phe)] (Ac-V[Chg]R[Tic][Phe(3,4-Cl2)]-NH2) | 1 to 10
22 | CC(=O)N[C@H](C(=O)N[C@H](C(=O)N[C@@H](CCCNC(=N)N)C(=O)N1Cc2ccccc2C[C@H]1C(=O)N[C@@H](Cc1cccc2[nH]ncc12)C(N)=O)C1CCCCC1)C(C)C [AcV(Chg)R(Tic)(4-Indazole)] (Ac-V[Chg]R[Tic][X7]-NH2) | 1 to 10
23 | CC(=O)N[C@H](C(=O)N[C@H](C(=O)N[C@@H](CCCNC(=N)N)C(=O)N1Cc2ccccc2C[C@H]1C(=O)N[C@@H](Cc1ccc(F)cc1)C(N)=O)C1CCCCC1)C(C)C [AcV(Chg)R(Tic)(4′-F Phe)] (Ac-V[Chg]R[Tic][Phe(4-F)]-NH2) | 1 to 10
24 | CC(=O)N[C@H](C(=O)N[C@@H](CCCNC(=N)N)C(=O)N1Cc2ccccc2C[C@H]1C(=O)N[C@@H](Cc1ccccc1)C(=O)N1CCCC[C@H]1C(=O)O)C1CCCC1 [Ac(Cpg)R(Tic)F(homo Pro)COOH] (Ac-[Gly(cPent)]R[Tic]F[Pip]-OH) | 10 to 100
25 | CC(=O)N[C@H](C(=O)N[C@H](C(=O)N[C@@H](CCCNC(=N)N)C(=O)N1Cc2ccccc2C[C@H]1C(=O)N[C@@H](Cc1ccccc1)C(=O)N1CCOCC1)C1Cc2ccccc2C1)C(C)C [AcV(Indgly)R(Tic)F-CO(morpholine)] (Ac-V[Igl]R[Tic]F-Morpholide) | 10 to 100
26 | CC(=O)N[C@H](C(=O)N[C@H](C(=O)N[C@@H](CCCNC(=N)N)C(=O)N1Cc2ccccc2C[C@H]1C(=O)NC(Cc1cccc2[nH]ccc12)C(N)=O)C1CCCCC1)C(C)C (some centres unmarked) [AcV(Chg)R(Tic)-(4′-Indolyl Ala)] (Ac-V[Chg]R[Tic][X5]-NH2) | 1 to 10
27 | CC(=O)N[C@H](C(=O)N[C@H](C(=O)N[C@@H](Cc1c[nH]c(N)n1)C(=O)N1Cc2ccccc2C[C@H]1C(=O)N[C@@H](Cc1ccccc1)C(N)=O)C1CCCCC1)C(C)C [AcV(Chg)(2-amino His)(Tic)F] (Ac-V[Chg][X8][Tic]F-NH2) | 10 to 100
28 | CC(=O)N[C@H](C(=O)N[C@H](C(=O)N[C@@H](CCCNC(=N)N)C(=O)N1Cc2ccccc2C[C@H]1C(=O)N[C@@H](Cc1cccc2[nH]cnc12)C(N)=O)C1CCCCC1)C(C)C [AcV(Chg)R(Tic)(4-benzimidazole)] (Ac-V[Chg]R[Tic][X2]-NH2) | 10 to 100
29 | CNC(=O)[C@H](Cc1ccccc1)NC(=O)[C@@H]1Cc2ccccc2CN1C(=O)[C@H](CCCNC(=N)N)NC(=O)[C@@H](NC(=O)[C@@H](NC(C)=O)C(C)C)C1CCCCC1 [AcV(Chg)R(Tic)F-CONHMe] (Ac-V[Chg]R[Tic]F-NHMe) | 10 to 100
30 | CNCC(=O)N[C@H](C(=O)N[C@H](C(=O)N[C@@H](CCCNC(N)=O)C(=O)N1Cc2ccccc2C[C@H]1C(=O)N[C@@H](Cc1ccccc1)C(N)=O)C1CCCCC1)C(C)C [(NH2-Sar)V(Chg)(Cit)(Tic)F] (H-[Sar]V[Chg][Cit][Tic]F-NH2) | 1 to 10
31 | CC(=O)N[C@H](C(=O)N[C@H](C(=O)N[C@@H](CCCNC(=N)N)C(=O)N1CCCC[C@H]1C(=O)N[C@@H](Cc1ccccc1)C(N)=O)C1CCCCC1)C(C)C [AcV(Chg)R(homo Pro)F] (Ac-V[Chg]R[Pip]F-NH2) | 10 to 100
32 | CC(C)[C@H](NC(=O)CCN)C(=O)N[C@H](C(=O)N[C@@H](CCCNC(N)=O)C(=O)N1Cc2ccccc2C[C@H]1C(=O)N[C@@H](Cc1ccccc1)C(N)=O)C1CCCCC1 [(NH2-Beta Ala)V(Chg)(Cit)(Tic)F] (H-[βAla]V[Chg][Cit][Tic]F-NH2) | 1 to 10
